ChEMBL document CHEMBL1641373, “Trishomocubane as a scaffold for the development of selective dopamine transporter (DAT) ligands” (Bioorg Med Chem Lett, 2011)

Legend:
[1] = target: Sodium-dependent dopamine transporter (Homo sapiens, UniProt Q01959); experiment: Inhibition of DAT
[2] = target: Sodium-dependent noradrenaline transporter (Homo sapiens, UniProt P23975); experiment: Inhibition of NET
[3] = target: Sodium-dependent serotonin transporter (Homo sapiens, UniProt P31645); experiment: Inhibition of SERT
Sequence of Sodium-dependent serotonin transporter (P31645 whole entry): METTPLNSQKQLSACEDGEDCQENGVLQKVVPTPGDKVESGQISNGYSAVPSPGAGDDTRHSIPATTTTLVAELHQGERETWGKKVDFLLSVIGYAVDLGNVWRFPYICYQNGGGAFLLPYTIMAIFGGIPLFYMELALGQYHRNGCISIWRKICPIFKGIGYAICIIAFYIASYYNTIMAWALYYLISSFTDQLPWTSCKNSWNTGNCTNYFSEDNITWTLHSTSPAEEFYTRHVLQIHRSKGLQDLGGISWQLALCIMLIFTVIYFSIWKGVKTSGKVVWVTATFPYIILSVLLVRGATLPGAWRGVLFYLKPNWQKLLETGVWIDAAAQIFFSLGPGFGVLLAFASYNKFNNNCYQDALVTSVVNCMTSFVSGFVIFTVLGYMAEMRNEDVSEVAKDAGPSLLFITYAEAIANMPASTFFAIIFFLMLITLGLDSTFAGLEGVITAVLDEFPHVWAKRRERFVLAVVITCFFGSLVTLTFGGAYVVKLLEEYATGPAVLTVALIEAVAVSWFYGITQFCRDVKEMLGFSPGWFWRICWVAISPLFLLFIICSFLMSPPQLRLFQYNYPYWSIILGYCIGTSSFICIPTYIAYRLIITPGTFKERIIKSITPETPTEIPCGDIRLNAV

Sequence of Sodium-dependent dopamine transporter (Q01959 whole entry): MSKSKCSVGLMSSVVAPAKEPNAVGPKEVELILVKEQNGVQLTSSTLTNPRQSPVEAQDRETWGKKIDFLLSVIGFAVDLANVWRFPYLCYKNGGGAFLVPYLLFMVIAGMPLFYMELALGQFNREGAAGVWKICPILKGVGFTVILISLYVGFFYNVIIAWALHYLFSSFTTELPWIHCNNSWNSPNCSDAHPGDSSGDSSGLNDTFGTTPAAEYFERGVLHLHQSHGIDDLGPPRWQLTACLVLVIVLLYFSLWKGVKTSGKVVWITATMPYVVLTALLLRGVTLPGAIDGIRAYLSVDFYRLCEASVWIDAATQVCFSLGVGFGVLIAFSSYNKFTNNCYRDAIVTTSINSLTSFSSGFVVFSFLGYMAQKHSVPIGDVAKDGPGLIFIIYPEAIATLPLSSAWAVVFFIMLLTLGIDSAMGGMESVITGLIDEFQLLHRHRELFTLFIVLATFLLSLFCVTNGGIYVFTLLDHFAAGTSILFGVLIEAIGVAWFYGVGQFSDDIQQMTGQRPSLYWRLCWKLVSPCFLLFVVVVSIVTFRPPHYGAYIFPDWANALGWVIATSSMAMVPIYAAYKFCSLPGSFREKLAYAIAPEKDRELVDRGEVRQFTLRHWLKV
Sequence of Sodium-dependent noradrenaline transporter (P23975 whole entry): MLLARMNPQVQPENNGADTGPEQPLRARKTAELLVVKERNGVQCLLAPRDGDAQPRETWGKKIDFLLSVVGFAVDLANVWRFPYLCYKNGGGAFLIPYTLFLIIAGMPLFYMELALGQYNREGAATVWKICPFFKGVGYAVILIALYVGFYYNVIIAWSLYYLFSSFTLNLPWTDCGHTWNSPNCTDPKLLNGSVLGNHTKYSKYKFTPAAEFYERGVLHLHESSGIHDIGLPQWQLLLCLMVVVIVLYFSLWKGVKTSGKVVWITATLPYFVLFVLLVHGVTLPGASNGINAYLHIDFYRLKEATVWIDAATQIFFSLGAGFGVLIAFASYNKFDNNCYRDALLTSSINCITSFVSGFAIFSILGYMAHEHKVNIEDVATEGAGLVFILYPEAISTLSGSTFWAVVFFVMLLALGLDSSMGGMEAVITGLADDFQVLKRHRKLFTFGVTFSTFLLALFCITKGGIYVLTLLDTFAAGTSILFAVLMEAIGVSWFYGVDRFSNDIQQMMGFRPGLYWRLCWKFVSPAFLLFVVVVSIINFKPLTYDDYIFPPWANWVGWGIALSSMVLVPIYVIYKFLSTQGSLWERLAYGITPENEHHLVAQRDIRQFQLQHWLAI

Row | Compound | Ki [1] [nM] | IC50 [2] [nM] | IC50 [3] [nM] | IC50 [1] [nM] | Ki [2] [nM] | Ki [3] [nM]
1 | CCCCC1=C(c2ccc(Cl)cc2)C2CCN1CC2 | 14 |  |  |  |  | 
2 | CN1[C@H]2CC[C@@H]1[C@@H](C(=O)N1CCCC1)[C@@H](c1ccc(I)cc1)C2 |  | 1730 | 991 | 0.37 |  | 
3 | CN(C)C[C@H]1C2CCC(CC2)[C@H]1c1ccc(Cl)c(Cl)c1 | 7.2 |  |  |  | 44 | 57
4 | COC(=O)[C@H]1[C@@H](c2ccc(C)cc2)C[C@H]2CC[C@@H]1N2C/C=C/I | 17 |  |  |  | > 1000 | 500
5 | COC(=O)[C@@H]1C2CCC(C[C@@H]1c1ccc(C)cc1)N2C/C=C/CF (some centres undefined) |  | > 1000 | > 1000 | 2.4 |  | 
6 | NCCN1[C@@H]2CC[C@H]1C[C@@H](NC(c1ccc(F)cc1)c1ccc(F)cc1)C2 | 12.5 |  |  |  |  | 
